Assay results published in patent US20210346506A1, “PRODRUG OF ITRACONAZOLE AND USES THEREOF” (priority 2020, published 2021).

Columns and labels:
[1] = Compound stability test in mouse blood; type: in vitro ADME; conditions: for half-life at 1 μM: male, CD-1, in vitro half-life in mouse blood; for half-life at 1 μM / Remaining Percentages (%): 37° C., 1 μM
Experimental: (§1) One (1) mM test compound working solution was prepared in DMSO. One (1) mM propantheline working solution was prepared in acetonitrile, wherein propantheline was used as positive control in this assay.
(§2) Ten (10) μL of each test compound solution and the control compound solution were respectively added into a 96 deep well plate, and 40 μL of acetonitrile:water (V/V=1:1) was added to each well to dilute the 1 mM test compound solution to 200 μM working solution.
(§3) Mouse blood (male CD-1 mouse blood, Pharmaron, Lot# PH-ADME-Mouse-20180329) or human blood (Pharmaron, Lot# PH-ADME-Human-20180329) of 398 μL was added to each well of an incubation plate, and then the incubation plate was pre-warmed at 37° C. for 15 minutes. After the pre-incubation, 2 μL of 200 μM working solution prepared above was spiked to the pre-warmed 398 μL blood to reach a final concentration of 1 μM. The final concentration of DMSO was 0.1% and the final concentration of acetonitrile was 0.2%. The assay was performed in duplicate.
(§4) The incubation plate was incubated at 37° C. water bath with shaking at 50 rpm, and aliquots of 50 μL were taken from each well of the incubation plate at 0, 10, 30, 60, 90, 120 and 180 minutes.
(§5) The reaction was stopped by the addition of 50 μL of pure water. The plate was vortexed for 30 seconds at 1,000 rpm and then added with 300 μL of cold acetonitrile containing internal standards (100 nM aprozolam, 200 nM caffeine, 100 nM tolbutamide).
(§6) All samples were vortexed for 10 minutes, followed by centrifugation at 14,000 rpm for 15 minutes to precipitate proteins. 100 μL of each supernatant was transferred to a new plate, and diluted with ultrapure water according to the LC-MS signal response and peak shape.
(§7) Samples were analyzed by LC-MS/MS.
(§8) • LC system: ACQUITY UPLC® I-Class • MS analysis: Waters XEVO® TQ-D with an ESI interface • Column temperature: 40° C. • Injection volume: 3 μL • Column: Waters XSelect HSS T3 C18, 2.5 μm, 2.1×50 mm column • Mobile phase: 0.1% formic acid in water (A) and 0.1% formic acid in acetonitrile (B)
(§9) • Ion source: Turbo spray • Ionization model: ESI • Scan type: MRM • Cone gas: 150 L/h • Desolvation gas: 1000 L/h • Desolvation temperature: 500° C. • Capillary voltage: 3.00 KV
(§10) All calculations were carried out using Microsoft Excel. Peak area ratios were determined from extracted ion chromatograms, and percent compounds remaining at each time point were calculated by the following equation:
(§11) Remaining Percentaget min(%)=Peak Area Ratiot min/Peak Area Ratio0 min×100, where Peak Area Ratiot min referred to peak area ratio of control and test compounds at t min; and Peak Area Ratio0 min referred to peak area ratio of control and test compounds at zero time point. The in vitro half-life (in vitro t1/2) was determined from the slope value: In vitro T1/2=−(0.693/k).

[2] = Compound stability test in human blood; type: in vitro ADME; conditions: for Remaining Percentages (%) / half-life at 1 μM: 37° C., 1 μM; for half-life at 1 μM: in vitro half-life in human blood
Experimental: as §1, §2, §3, §4, §5, §6, §7, §8, §9, §10, §11

[3] = Pharmacokinetic study of itraconazole release in mice after intravenous and oral dosing of Compound 6; type: in vivo, mouse; conditions: for Plasma itraconazole Concentration (ng/mL): mice, individual mice
Experimental: Compound 6 was dissolved in DMSO:PEG400:water (1:4:5, v/v/v) with a final concentration of 0.2 mg/ml or 0.5 mg/ml. The 0.2 mg/ml solution was used for intravenous dosing, and the 0.5 mg/ml solution was for oral dosing.
Three male C57BL/6 mice were intravenously administered with Compound 6 at a dose of 1.0 mg/kg, and blood samples were collected at 2 min, 15 min, 30 min, 1 h, 2 h, 4 h, 6 h, 8 h, and 24 h post administration.
Three male C57BL/6 mice were orally given Compound 6 at a dose of 5.0 mg/kg, and blood samples were collected at 15 min, 30 min, 1 h, 2 h, 4 h, 6 h, 8 h, and 24 h post administration.
(§12) And dose levels were corrected in PK parameter calculation due to the salt factor.
(§13) The blood samples were subject to LC-MS/MS analysis, to monitor the plasma concentrations of both the parent compound and Itraconazole.
(§14) Column: Waters XSELECT HSS T3 2.5 μm 2.1×50 mm
(§15) Mobile phase: 5% Acetonitrile in Water (0.1% Formic acid) (A) and 95% Acetonitrile in Water (0.1% Formic acid) (B)
(§16) Gradient: flow rate at 0.6 mL/min
(§17) AB Sciex Triple Quad 5500 LC/MS/MS instrument (Serial NO. BB212611510)
(§18) Quantification: Internal Standard Method

[4] = relatively low dose; cited from earlier work
[5] = Pharmacokinetic study of itraconazole release in mice after intravenous and oral dosing of Compound 3; type: in vivo, mouse; conditions: for Plasma itraconazole Concentration (ng/mL): mice, individual mice
Experimental: Compound 3 was dissolved in DMSO:PEG400:water (1:4:5, v/v/v) with a final concentration of 0.2 mg/ml or 0.5 mg/ml. The 0.2 mg/ml solution was used for intravenous dosing, and the 0.5 mg/ml solution was for oral dosing.
Three male C57BL/6 mice were intravenously administered with Compound 3 at a dose of 1.0 mg/kg, and blood samples were collected at 2 min, 15 min, 30 min, 1 h, 2 h, 4 h, 6 h, 8 h, and 24 h post administration.
Three male C57BL/6 mice were orally given Compound 3 at a dose of 5.0 mg/kg, and blood samples were collected at 15 min, 30 min, 1 h, 2 h, 4 h, 6 h, 8 h, and 24 h post administration.
as §12, §13, §14, §15, §16, §17, §18

| SMILES | half-life at 1 μM [1] [h] | Remaining Percentages (%) ([1]; mouse blood, 0 min) | Remaining Percentages (%) ([1]; mouse blood, 10 min) | Remaining Percentages (%) ([1]; mouse blood, 30 min) | Remaining Percentages (%) ([1]; mouse blood, 60 min) | Remaining Percentages (%) ([1]; mouse blood, 90 min) | Remaining Percentages (%) ([1]; mouse blood, 120 min) | Remaining Percentages (%) ([1]; mouse blood, 180 min) | Remaining Percentages (%) ([2]; human blood, 0 min) | Remaining Percentages (%) ([2]; human blood, 10 min) | Remaining Percentages (%) ([2]; human blood, 30 min) | Remaining Percentages (%) ([2]; human blood, 60 min) | Remaining Percentages (%) ([2]; human blood, 90 min) | Remaining Percentages (%) ([2]; human blood, 120 min) | Remaining Percentages (%) ([2]; human blood, 180 min) | half-life at 1 μM [2] [h] | also measured |
| --- | --- | --- | --- | --- | --- | --- | --- | --- | --- | --- | --- | --- | --- | --- | --- | --- | --- |
| CCOC(=O)OC[n+]1cnn(CC2(c3ccc(Cl)cc3Cl)OCC(COc3ccc(N4CCN(c5ccc(-n6cnn(C(C)CC)c6=O)cc5)CC4)cc3)O2)c1.[Cl-] (stereo not shown) [Compound 6] | 0.167 | 100 | 51.5 | 12.6 | 3.10 | 0.595 | 0.186 | 0.232 | 100 | 94.2 | 77.3 | 55.3 | 41.1 | 34.0 | 15.2 | 1.12 | abnormal clinical symptoms during the test ([3]; male C57BL/6 mice, 1.0 mg/kg intravenous or 5.0 mg/kg oral Compound 6): No mice were observed with abnormal clinical symptoms; Plasma itraconazole Concentration (ng/mL) ([3]; IV Dose 0.822 mg/kg Compound 6, 8 h, 0.822 mg/kg): BLOQ; Plasma itraconazole Concentration (ng/mL) ([3]; IV Dose 0.822 mg/kg Compound 6, 24 h): BLOQ; Plasma itraconazole Concentration (ng/mL) ([3]; PO Dose 4.11 mg/kg Compound 6, 24 h): BLOQ |
| CCC(C)n1ncn(-c2ccc(N3CCN(c4ccc(OCC5COC(Cn6cncn6)(c6ccc(Cl)cc6Cl)O5)cc4)CC3)cc2)c1=O (stereo not shown) [Itraconazole] | – | – | – | – | – | – | – | – | – | – | – | – | – | – | – | – | adverse effect, in words [4]: no observed adverse effect |
| CCC(C)n1ncn(-c2ccc(N3CCN(c4ccc(OCC5COC(Cn6c[n+](COC(C)=O)cn6)(c6ccc(Cl)cc6Cl)O5)cc4)CC3)cc2)c1=O.[Cl-] (stereo not shown) [Compound 3] | 0.983 | 100 | 88.1 | 67.1 | 46.3 | 30.3 | 24.4 | 12.0 | 100 | 94.0 | 82.3 | 67.5 | 61.5 | 55.3 | 34.3 | 2.05 | stability in blood, in words ([1]; mouse blood): more stable among exemplary compounds; stability in blood, in words ([2]; human blood): more stable among exemplary compounds; abnormal clinical symptoms during the test ([5]; male C57BL/6 mice, 1.0 mg/kg intravenous or 5.0 mg/kg oral Compound 3): No mice were observed with abnormal clinical symptoms; Plasma itraconazole Concentration (ng/mL) ([5]; IV Dose 0.860 mg/kg Compound 3, 8 h, 0.86 mg/kg): BLOQ; Plasma itraconazole Concentration (ng/mL) ([5]; IV Dose 0.860 mg/kg Compound 3, 24 h): BLOQ; Plasma itraconazole Concentration (ng/mL) ([5]; PO Dose 4.30 mg/kg Compound 3, 24 h): BLOQ |
